# Measurements from patent publication US11274332B2, “Methods of administering 3,4-diaminopyridine” (SERB SA, priority 2011, dated 2022).
# Read-outs that look alike come from different tables or passages of the source.
# Test: Example 18 Part 2: multiple dose PK (20 mg QID) of 3,4-DAP and 3-N-acetyl metabolite in slow and fast acetylators
# Assay type: in vivo, human
# Details: for AUC(0-t) / Cmax / Tmax / Vd/F / half-life: both sexes, human, plasma, oral, 20 mg; for Tmax: read-out: Mean Tmax; for Vd/F: read-out: Mean Vz/F; for half-life: read-out: Mean t1/2 (converted)
# Experimental: The following method was used to analyze concentrations of 3,4-diaminopyridine and N-(4-aminopyridin-3-yl)acetamide in plasma and urine samples for the experiments in Example 18. In the LC/MS/MS method, the human plasma and urine samples were extracted using acetonitrile containing 0.1% formic acid. Samples were analyzed by using HPLC with positive ion electrospray MS/MS detection. The column was an Atlantis HILIC Silica column (3 μm, 3×50 mm) at a temperature of 40° C. Mobile phase A was water containing ammonium formate (20 mM) and 0.1% formic acid. Mobile phase B was acetonitrile/isopropanol (90/10; v/v) containing 0.1% formic acid. The flow rate was 0.90 mL/minute. The gradient conditions for human plasma and urine samples were as follows:
# The LC/MS/MS method was validated to quantify 3,4-DAP in human plasma in the linear calibration range of 0.500 to 500 ng/mL and from 1.00 to 1000 ng/mL for the 3-N-acetyl metabolite.
# The primary objective of the study was to assess the safety and tolerability of 3,4-DAP phosphate after single and multiple doses. The secondary objectives of the study were • Part 1 only: To determine the dose-related PK profile of amifampridine and of 3-N-acetyl amifampridine after single, escalating doses of 3,4-DAP phosphate • Part 2 only: To assess the steady-state plasma PK and accumulation of amifampridine and of 3-N-acetyl amifampridine over multiple days of dosing with 3,4-DAP phosphate An exploratory objective was to examine the overall activity of the N-acetyl transferase enzymes on the metabolism of amifampridine by assessing the PK of amifampridine and 3-N-acetyl amifampridine with phenotypic acetylation activity and genotyping determination of NAT2 gene polymorphisms. Study Design and Plan
# This open-label study in healthy subjects (male and female) was conducted in 2 parts. A total of 26 healthy male and female subjects, 12 in Part 1 (at least 5 of each sex), 4 in Part 2 Group 1, and 10 in Part 2 Group 2 (at least 4 of each sex) were enrolled into the study. The same subjects were not enrolled to participate in both parts. Subjects in Part 2 were dosed only after all subjects of Part 1 completed dosing and at least 24-hours of follow-up safety evaluation after the last dose were completed.
# All subjects were characterized for their metabolic acetylation phenotype and NAT2 genotype in order to divide subjects into two groups of acetylators. Volunteers were genetically typed for highly variant alleles of the N-acetyl transferase 2 enzyme (NAT2) domain on chromosome 8 (according to Example 16) and were phenotyped for acetylation rates with a caffeine challenge test (according to Example 15a). Approximately equal numbers of slow and fast acetylators (as defined by a caffeine challenge test in Example 15a) were enrolled in each group. In Part 2, very slow acetylators with NAT2 activity (ratio 1, Example 15a) below 0.06 were excluded from participation in the study. In each part of the study, subjects were assessed for PK, safety, and tolerability and all doses were administered within 30 min of ingestion of a meal or a snack.
# Part 2, Group 1: Four sentinel subjects were selected after determining their acetylator status. Two were fast acetylators and two were slow acetylators. All four were dosed on Day 1 with 4 oral doses of 20 mg of 34-DAP phosphate (given at 4-hour dosing intervals). On Days […] and 2, safety and tolerability data was collected. Subjects left the clinic on Day 2. The safety and tolerability data collected for these 4 sentinel subjects were reviewed. The safety and tolerability results of Days 1 and 2 for these subjects were acceptable and thus Part 2 Group 2 was commenced. Minimally acceptable safety was defined as the absence of clinical seizure activity. Subjects in Group 1 returned to the clinic for their follow-up assessments 2-4 days following their last dose.
# Each subject was given a final morning dose of 20 mg 3,4-DAP phosphate on Day 4. […]
# [1] = Day 1, Dose 1, fast acetylators, 20 mg QID
# [2] = Day 1, Dose 1, slow acetylators, 20 mg QID
# [3] = Day 1, Dose 2, fast acetylators, 20 mg QID
# [4] = Day 1, Dose 2, slow acetylators, 20 mg QID
# [5] = Day 1, Dose 3, fast acetylators, 20 mg QID
# [6] = Day 1, Dose 3, slow acetylators, 20 mg QID
# [7] = Day 1, Dose 4, fast acetylators, 20 mg QID
# [8] = Day 1, Dose 4, slow acetylators, 20 mg QID
# [9] = Day 3, Dose 1, fast acetylators, 20 mg QID
# [10] = Day 3, Dose 1, slow acetylators, 20 mg QID
# [11] = Day 3, Dose 2, fast acetylators, 20 mg QID
# [12] = Day 3, Dose 2, slow acetylators, 20 mg QID
# [13] = Day 3, Dose 3, fast acetylators, 20 mg QID
# [14] = Day 3, Dose 3, slow acetylators, 20 mg QID
# [15] = Day 3, Dose 4, fast acetylators, 20 mg QID
# [16] = Day 3, Dose 4, slow acetylators, 20 mg QID
# [17] = Day 4, 20 mg single dose, fast acetylators
# [18] = Day 4, 20 mg single dose, slow acetylators
structure (smiles),measurement,setting,value
"Nc1ccncc1N [3,4-DAP, 3,4-diaminopyridine]",Mean CL/F,[1],898 L/h
same,Mean CL/F,[2],152 L/h
same,Mean CL/F,[3],757 L/h
same,Mean CL/F,[4],107 L/h
same,Mean CL/F,[5],879 L/h
same,Mean CL/F,[6],117 L/h
same,Mean CL/F,[7],885 L/h
same,Mean CL/F,[8],101 L/h
same,Mean CL/F,[9],973 L/h
same,Mean CL/F,[10],124 L/h
same,Mean CL/F,[11],607 L/h
same,Mean CL/F,[12],92.9 L/h
same,Mean CL/F,[13],817 L/h
same,Mean CL/F,[14],103 L/h
same,Mean CL/F,[15],795 L/h
same,Mean CL/F,[16],73.2 L/h
same,Mean CL/F,[17],673 L/h
same,Mean CL/F,[18],108 L/h
same,AUC(0-t),"Day 1, Dose 1, fast acetylators, 20 mg QID, read-out: Mean AUC0-4",23.5 ng·h/mL
same,Cmax,"Day 1, Dose 1, fast acetylators, 20 mg QID, read-out: Mean Cmax",24.4 ng/mL
same,Tmax,[1],0.809 h
same,Vd/F,[1],1330 L
same,half-life,[1],1.12 h
same,AUC(0-t),"Day 1, Dose 1, slow acetylators, 20 mg QID, read-out: Mean AUC0-4",115 ng·h/mL
same,Cmax,"Day 1, Dose 1, slow acetylators, 20 mg QID, read-out: Mean Cmax",74.8 ng/mL
same,Tmax,[2],1.12 h
same,Vd/F,[2],299 L
same,half-life,[2],1.39 h
same,AUC(0-t),"Day 1, Dose 1-4, fast acetylators, 20 mg QID, read-out: Mean AUC0-24",97.9 ng·h/mL
same,AUC(0-t),"Day 1, Dose 1-4, slow acetylators, 20 mg QID, read-out: Mean AUC0-24",630 ng·h/mL
same,AUC(0-t),"Day 1, Dose 2, fast acetylators, 20 mg QID, read-out: Mean AUC0-4",22.5 ng·h/mL
same,Cmax,"Day 1, Dose 2, fast acetylators, 20 mg QID, read-out: Mean Cmax",13.3 ng/mL
same,Tmax,[3],1.07 h
same,Vd/F,[3],1340 L
same,half-life,[3],1.31 h
same,AUC(0-t),"Day 1, Dose 2, slow acetylators, 20 mg QID, read-out: Mean AUC0-4",152 ng·h/mL
same,Cmax,"Day 1, Dose 2, slow acetylators, 20 mg QID, read-out: Mean Cmax",83.7 ng/mL
same,Tmax,[4],1.14 h
same,Vd/F,[4],293 L
same,half-life,[4],1.93 h
same,AUC(0-t),"Day 1, Dose 3, fast acetylators, 20 mg QID, read-out: Mean AUC0-4",24.1 ng·h/mL
same,Cmax,"Day 1, Dose 3, fast acetylators, 20 mg QID, read-out: Mean Cmax",16.8 ng/mL
same,Tmax,[5],0.583 h
same,Vd/F,[5],1720 L
same,half-life,[5],1.3 h
same,AUC(0-t),"Day 1, Dose 3, slow acetylators, 20 mg QID, read-out: Mean AUC0-4",140 ng·h/mL
same,Cmax,"Day 1, Dose 3, slow acetylators, 20 mg QID, read-out: Mean Cmax",72.2 ng/mL
same,Tmax,[6],0.857 h
same,Vd/F,[6],269 L
same,half-life,[6],1.59 h
same,AUC(0-t),"Day 1, Dose 4, fast acetylators, 20 mg QID, read-out: Mean AUC0-4",23.7 ng·h/mL
same,Cmax,"Day 1, Dose 4, fast acetylators, 20 mg QID, read-out: Mean Cmax",16.4 ng/mL
same,Tmax,[7],0.643 h
same,Vd/F,[7],1730 L
same,half-life,[7],1.49 h
same,AUC(0-t),"Day 1, Dose 4, slow acetylators, 20 mg QID, read-out: Mean AUC0-4",145 ng·h/mL
same,Cmax,"Day 1, Dose 4, slow acetylators, 20 mg QID, read-out: Mean Cmax",67.1 ng/mL
same,Tmax,[8],1.29 h
same,Vd/F,[8],338 L
same,half-life,[8],2.52 h
same,AUC(0-t),"Day 3, Dose 1, fast acetylators, 20 mg QID, read-out: Mean AUC0-4",24.9 ng·h/mL
same,Cmax,"Day 3, Dose 1, fast acetylators, 20 mg QID, read-out: Mean Cmax",24 ng/mL
same,Tmax,[9],0.8 h
same,Vd/F,[9],1390 L
same,half-life,[9],1.07 h
same,AUC(0-t),"Day 3, Dose 1, slow acetylators, 20 mg QID, read-out: Mean AUC0-4",130 ng·h/mL
same,Cmax,"Day 3, Dose 1, slow acetylators, 20 mg QID, read-out: Mean Cmax",81.2 ng/mL
same,Tmax,[10],1 h
same,Vd/F,[10],283 L
same,half-life,[10],1.6 h
same,AUC(0-t),"Day 3, Dose 1-4, fast acetylators, 20 mg QID, read-out: Mean AUC0-24",111 ng·h/mL
same,AUC(0-t),"Day 3, Dose 1-4, slow acetylators, 20 mg QID, read-out: Mean AUC0-24",701 ng·h/mL
same,AUC(0-t),"Day 3, Dose 2, fast acetylators, 20 mg QID, read-out: Mean AUC0-4",28.5 ng·h/mL
same,Cmax,"Day 3, Dose 2, fast acetylators, 20 mg QID, read-out: Mean Cmax",18.7 ng/mL
same,Tmax,[11],0.9 h
same,Vd/F,[11],1110 L
same,half-life,[11],1.34 h
same,AUC(0-t),"Day 3, Dose 2, slow acetylators, 20 mg QID, read-out: Mean AUC0-4",164 ng·h/mL
same,Cmax,"Day 3, Dose 2, slow acetylators, 20 mg QID, read-out: Mean Cmax",96.1 ng/mL
same,Tmax,[12],1 h
same,Vd/F,[12],260 L
same,half-life,[12],1.97 h
same,AUC(0-t),"Day 3, Dose 3, fast acetylators, 20 mg QID, read-out: Mean AUC0-4",25.8 ng·h/mL
same,Cmax,"Day 3, Dose 3, fast acetylators, 20 mg QID, read-out: Mean Cmax",21.9 ng/mL
same,Tmax,[13],0.532 h
same,Vd/F,[13],2200 L
same,half-life,[13],1.73 h
same,AUC(0-t),"Day 3, Dose 3, slow acetylators, 20 mg QID, read-out: Mean AUC0-4",156 ng·h/mL
same,Cmax,"Day 3, Dose 3, slow acetylators, 20 mg QID, read-out: Mean Cmax",80.9 ng/mL
same,Tmax,[14],0.8 h
same,Vd/F,[14],241 L
same,half-life,[14],1.63 h
same,AUC(0-t),"Day 3, Dose 4, fast acetylators, 20 mg QID, read-out: Mean AUC0-4",25.1 ng·h/mL
same,Cmax,"Day 3, Dose 4, fast acetylators, 20 mg QID, read-out: Mean Cmax",16.2 ng/mL
same,Tmax,[15],0.8 h
same,Vd/F,[15],1870 L
same,half-life,[15],1.82 h
same,AUC(0-t),"Day 3, Dose 4, slow acetylators, 20 mg QID, read-out: Mean AUC0-4",168 ng·h/mL
same,Cmax,"Day 3, Dose 4, slow acetylators, 20 mg QID, read-out: Mean Cmax",97.1 ng/mL
same,Tmax,[16],0.6 h
same,Vd/F,[16],376 L
same,half-life,[16],3.56 h
same,AUC(0-t),"Day 4, 20 mg single dose, fast acetylators, read-out: Mean AUC0-4",22.6 ng·h/mL
same,AUC(0-t),"Day 4, 20 mg single dose, fast acetylators, read-out: Mean AUC0-24",25.9 ng·h/mL
same,Cmax,"Day 4, 20 mg single dose, fast acetylators, read-out: Mean Cmax",13.6 ng/mL
same,Tmax,[17],0.9 h
same,Vd/F,[17],1770 L
same,half-life,[17],1.95 h
same,AUC(0-t),"Day 4, 20 mg single dose, slow acetylators, read-out: Mean AUC0-4",133 ng·h/mL
same,AUC(0-t),"Day 4, 20 mg single dose, slow acetylators, read-out: Mean AUC0-24",186 ng·h/mL
same,Cmax,"Day 4, 20 mg single dose, slow acetylators, read-out: Mean Cmax",72.5 ng/mL
same,Tmax,[18],1.2 h
same,Vd/F,[18],486 L
same,half-life,[18],3.24 h
same,Cmax,"Days 1-4, 20 mg QID, fast acetylators, read-out: plasma mean Cmax values, range",13.3 to 24.4 ng/mL
same,Cmax,"Days 1-4, 20 mg QID, slow acetylators, read-out: plasma mean Cmax values, range",67.1 to 97.1 ng/mL
